We go through 1 compound from ChEMBL document CHEMBL5726023, “Fused azaheterocyclic compounds and their use as AMPA receptor modulators” (2018).

pIC50: −log10 of the molar value.

A short description of the test: Calcium Flux Assay: An in vitro assay was used to determine the potency of test compounds as inhibitors of the glutamate response of the channel formed by GluA1o-γ8. To ensure a 1:1 stoichiometry of GluA1o and γ8 subunits in the expressed channel, a fusion of the cDNAs for GRIA1o and CACNG8 was used. Following Shi et al (2009) The stoichiometry of AMPA receptors and TARPs varies by neuronal cell type. Neuron 62(5): 633-640), the C-terminus of the cDNA for GRIA1o was fused to the N-terminus of the cDNA for γ8. The linker sequence was QQQQQQQQQQEFAT. Channels expressed with this construct appear to have similar properties to channels formed by co-expression of GRIA1o with an excess of CACNG8 (Shi et al. 2009). A clonal cell line in HEK293 cells stably expressing this construct, with a geneticin selection marker, was generated for use in this assay.Cell expressing the GRIA1o-CACNG8 fusion construct were grown in a monolayer in 96- or 384-well microtiter plates. They were washed with assay buffer (135 mM NaCl, 4 mM KCl, 3 mM CaCl2, 1 mM MgCl2, 5 mM glucose, 10 mM HEPES, pH 7.4, 300 mOs) using a Biotek EL405 plate washer. The cells were then loaded with a calcium-sensitive dye (Calcium-5 or Calcium-6, Molecular Devices) and the test compounds at a range of concentrations. […]. Format: cell-based. In general terms: Calcium assays in cells follow changes in intracellular calcium, usually with a dye or a luminescent sensor.

Regarding `Cc1cc(-c2c(C(F)(F)F)ccn3cc(C(C)C)nc23)cc2cn[nH]c12`, the pIC50 (usually the IC50 on a negative log10 scale, so that one unit is a factor of ten) was 10.00.
